Results on nine compounds are retold here after ChEMBL document CHEMBL5357017, “Small Molecule Fluorescent Ligands for the Atypical Chemokine Receptor 3 (ACKR3)” (ACS Med Chem Lett, 2024).

Calls of active or inactive are those of the source. The rule behind the calls is not given here.

In general, Kd refers to the concentration at which binding is half-saturated. As usually defined, the Ki is the equilibrium dissociation constant of an inhibitor or competing ligand from its target. Usually EC50 stands for the concentration at which the effect is half-maximal. A lower EC50 goes with a more potent agent.

In assay [1] the target is T1, Atypical chemokine receptor 3 (Homo sapiens, UniProt P25106). Kind of assay: Binding affinity to NanoLuc tagged human wild type ACKR3 expressed in HEK293G cells using furimazine as NanoLuc substrate preincubated for 1 hr in dark in presence of (R)-N-(3-(2-fluorophenyl)-2methylallyl)-3,4,5-trimethoxyN-(2-(1-methylpyrrolidin-2yl)ethyl)benzamide followed by substrate addition and measured after 5 mins by NanoBRET assay. Format: cell-based. (In BRET a luciferase serves as donor, and the signal depends on an acceptor being close.)
T1 sequence (P25106 whole entry): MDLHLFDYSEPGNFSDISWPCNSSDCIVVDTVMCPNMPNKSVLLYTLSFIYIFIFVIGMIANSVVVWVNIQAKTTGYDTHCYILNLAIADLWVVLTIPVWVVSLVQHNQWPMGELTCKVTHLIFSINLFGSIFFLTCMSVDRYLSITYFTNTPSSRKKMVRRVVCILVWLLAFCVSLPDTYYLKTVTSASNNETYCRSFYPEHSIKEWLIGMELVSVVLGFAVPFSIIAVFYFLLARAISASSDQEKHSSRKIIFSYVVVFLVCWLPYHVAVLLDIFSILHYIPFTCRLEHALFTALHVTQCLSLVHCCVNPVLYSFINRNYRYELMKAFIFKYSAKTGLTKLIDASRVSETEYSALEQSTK

Assay [2] deals with T1, Atypical chemokine receptor 3. Kind of assay: Binding affinity to NanoLuc tagged human wild type ACKR3 expressed in HEK293G cells using furimazine as NanoLuc substrate preincubated for 1 hr in dark followed by substrate addition and measured after 5 mins by NanoBRET assay. Type of assay: cell-based. The note with it: time 65.0 min.
For assay [3] the target is unchanged. Put plainly: Binding affinity to N-terminal SNAP-tagged ACKR3 (unknown origin) transfected in HEK293T cells assessed as internalization by measuring receptor colocalized intracellular fluorescence at 50 to 100 nM incubated for 30 mins by confocal microscopic analysis. Format: cell-based. The settings on record: dose 50-100 nM.
For assay [4] the target is unchanged. Kind of assay: Binding affinity to N-terminal SNAP-tagged ACKR3 (unknown origin) transfected in HEK293T cells assessed as internalization by measuring receptor colocalized intracellular fluorescence at 50 to 100 nM preincubated with (R)-N-(3-(2-fluorophenyl)-2-methylallyl)-3,4,5-trimethoxy-N-(2-(1-methylpyrrolidin-2-yl)ethyl)benzamide for 30 mins followed by fluorescent compound addition and further incubated for 30 mins by confocal microscopic analysis. Type of assay: cell-based. The note with it: dose 50-100 nM.

Assay [5] shares this target. Put plainly: Binding affinity to NanoLuc tagged human wild type ACKR3 expressed in HEK293G cells using furimazine as NanoLuc substrate preincubated for 1 hr in dark in presence of (R)-N-(3-(2-fluorophenyl)-2methylallyl)-3,4,5-trimethoxyN-(2-(1-methylpyrrolidin-2yl)ethyl)benzamide followed by substrate addition and measured after 5 mins by NanoBRET competition binding assay. Format: cell-based.

For assay [6] the target is unchanged. Kind of assay: Binding affinity to ACKR3 (unknown origin) by [125I] CXCL12 displacement assay.

With `COc1cc(C(=O)N(CC[C@H]2CCCN2C)C/C(C)=C/c2ccccc2F)cc(OCCOCCNC(=O)CCCCCNC(=O)CCC2=[N+]3C(=Cc4c(C)cc(C)n4[B-]3(F)F)C=C2)c1OC`, the Kd in assay [1] is 81.3 nM. For the same compound, the outcome in assay [2] was Active.

Take `COc1cc(C(=O)N(CC[C@H]2CCCN2C)C/C(C)=C/c2ccccc2F)cc(OCCNC(=O)CCCCCNC(=O)CCC2=[N+]3C(=Cc4c(C)cc(C)n4[B-]3(F)F)C=C2)c1OC`: the outcome in assay [3] and in assay [2] was Active. In addition, in assay [1], the Kd was 12.9 nM. Moreover, in assay [4], the outcome was inactive.

On to `COc1ccc(C(=O)N(CCC2CCCN2C)C/C(C)=C/c2cccc(F)c2)cc1OC` (centres undefined), for which, in assay [5], the Ki is 631 nM.

In the case of `COc1cc(C(=O)N(CC[C@@H]2CCCN2C)C/C(C)=C/c2ccccc2F)cc(OC)c1OC`, it took 20 nM to reach a half-maximal effect in assay [6] (EC50).

Take `COc1cc(C(=O)N(CC[C@H]2CCCN2C)C/C(C)=C/c2ccccc2F)cc(OCCOCCOCCNC(=O)CCCCCNC(=O)CCC2=[N+]3C(C=C2)Cc2c(C)cc(C)n2[B-]3(F)F)c1OC` (some centres undefined): the Kd in assay [1] was 151 nM. Besides, the outcome in assay [2] was Active.

As for `Cc1ccc(C(=O)c2cn(Cc3cccc(Br)n3)c3ccccc3c2=O)cc1C`, the Ki in assay [5] is 39.8 nM.

With `COc1cc(C(=O)N(CC[C@H]2CCCN2C)C/C(C)=C/c2ccccc2F)cc(OC)c1OC`, the EC50 in assay [6] was 5.01 nM.

Consider `COc1ccc(C(=O)N(CCC2CCCN2C)C/C(C)=C/c2ccccc2F)cc1OC` (centres undefined), for which the Ki in assay [5] is 251 nM.

With `C/C(=C\c1ccccc1)CN(CCC1CCCN1C)C(=O)c1ccc2c(c1)OCCO2` (centres undefined), the Ki in assay [5] is 10000 nM.
